Laboratory results published in ChEMBL document CHEMBL5647694, “Novel orally bioavailable EZH1/2 dual inhibitors with greater antitumor efficacy than an EZH2 selective inhibitor” (Cancer Sci, 2017).

Experiments:
[1] = molecular target: Serine/threonine-protein kinase D1 (Homo sapiens) (UniProt Q15139); assay: Inhibition of N-terminal GST-fused full length human PKD1 (1 to 912 residues) expressed in baculovirus expression system using GS peptide as substrate at 1 uM in presence of ATP by Mobility shift assay
[2] = molecular target: ALK tyrosine kinase receptor (Homo sapiens) (UniProt Q9UM73); assay: Inhibition of N-terminal GST-fused wild type human ALK cytoplasmic domain (1058 to 1620 residues ) expressed in baculovirus-infecetd Sf21 cells using Srctide as substrate at 1 uM in presence of ATP by Mobility shift assay
[3] = molecular target: Protein-tyrosine kinase 6 (Homo sapiens) (UniProt Q13882); assay: Inhibition of N-terminal GST-fused full length human BRK (2 to 451 residues) expressed in baculovirus-infected Sf21 cells using Blk/Lyntide as substrate at 1 uM in presence of ATP by Mobility shift assay
[4] = molecular target: Fibroblast growth factor receptor 1 (Homo sapiens) (UniProt P11362); assay: Inhibition of N-terminal GST-fused human FGFR1 cytoplasmic domain (398 to 822 residues ) expressed in baculovirus-infected Sf21 cells using CSKtide as substrate at 1 uM in presence of ATP by Mobility shift assay
[5] = molecular target: Vascular endothelial growth factor receptor 1 (Homo sapiens) (UniProt P17948); assay: Inhibition of N-terminal GST-fused human FLT1 cytoplasmic domain (781 to 1338 residues) expressed in baculovirus-infected Sf21 cells using CSKtide as substrate at 1 uM in presence of ATP by Mobility shift assay
[6] = molecular target: Receptor tyrosine-protein kinase erbB-2 (Homo sapiens) (UniProt P04626); assay: Inhibition of N-terminal His-tagged human HER2 cytoplasmic domain (676 to 1255 residues) expressed in baculovirus-infected Sf21 cells using Srctide as substrate at 1 uM in presence of ATP by Mobility shift assay
[7] = molecular target: Protein-tyrosine kinase 2-beta (Homo sapiens) (UniProt Q14289); assay: Inhibition of N-terminal GST-tagged full length human PYK2 (1 to 967 residues) expressed in baculovirus-infected Sf21 cells using Blk/Lyntide as substrate at 1 uM in presence of ATP by Mobility shift assay
[8] = molecular target: Tyrosine-protein kinase JAK3 (Homo sapiens) (UniProt P52333); assay: Inhibition of N-terminal His-tagged human JAK3 catalytic domain (795 to 1124 residues) expressed in baculovirus-infected Sf21 cells using Srctide as substrate at 1 uM in presence of ATP by Mobility shift assay
[9] = molecular target: Tyrosine-protein kinase Lyn (Homo sapiens) (UniProt P07948); assay: Inhibition of N-terminal GST-tagged full length human LynA(1 to 512 residues ) expressed in baculovirus-infected Sf21 cells using Srctide as substrate at 1 uM in presence of ATP by Mobility shift assay
[10] = molecular target: Dual specificity protein kinase CLK1 (Homo sapiens) (UniProt P49759); assay: Inhibition of N-terminal GST fused human CLK1 catalytic domain (129 to 484 residues) expressed in baculovirus expression system using DYRKtide-F as substrate at 1 uM in presence of ATP by Mobility shift assay
[11] = molecular target: Citron Rho-interacting kinase (Homo sapiens) (UniProt O14578); assay: Inhibition of N-terminal GST-fused human CRIK catalytic domain (1 to 449 residues) expressed in baculovirus expression system using Histone H3 peptide as substrate at 1 uM in presence of ATP by Mobility shift assay
[12] = molecular target: Eukaryotic elongation factor 2 kinase (Homo sapiens) (UniProt O00418); assay: Inhibition of N-terminal GST-fused full length human EEF2K (1 to 725 residues) expressed in Escherichia coli expression system using EEF2Ktide as substrate at 1 uM in presence of ATP by Mobility shift assay
[13] = molecular target: Mitogen-activated protein kinase kinase kinase kinase 4 (Homo sapiens) (UniProt O95819); assay: Inhibition of N-terminal GST-fused human HGK catalytic domain (1 to 328 residues) expressed in baculovirus expression system using Moesin-derived peptide as substrate at 1 uM in presence of ATP by Mobility shift assay
[14] = molecular target: Inhibitor of nuclear factor kappa-B kinase subunit alpha (Homo sapiens) (UniProt O15111); assay: Inhibition of N-terminal GST-fused full length human IKK-alpha (1 to 745 residues) expressed in baculovirus expression system using IkBalpha peptide as substrate at 1 uM in presence of ATP by IMAP assay
[15] = molecular target: Serine/threonine-protein kinase Nek7 (Homo sapiens) (UniProt Q8TDX7); assay: Inhibition of N-terminal GST-fused full length human NEK7 (1 to 302 residues) expressed in baculovirus expression system using CDK7 peptide as substrate at 1 uM in presence of ATP by Mobility shift assay
[16] = molecular target: NUAK family SNF1-like kinase 1 (Homo sapiens) (UniProt O60285); assay: Inhibition of N-terminal GST-fused full length human Nuak1 (1 to 661 residues) expressed in baculovirus expression system using CHKtide as substrate at 1 uM in presence of ATP by Mobility shift assay
[17] = molecular target: Ribosomal protein S6 kinase beta-1 (Homo sapiens) (UniProt P23443); assay: Inhibition of N-terminal GST-fused human p70S6K catalytic domain (1 to 421 residues) expressed in baculovirus expression system using S6K2 peptide as substrate at 1 uM in presence of ATP by Mobility shift assay
[18] = molecular target: Serine/threonine-protein kinase PAK 4 (Homo sapiens) (UniProt O96013); assay: Inhibition of N-terminal GST-fused full length human PAK4 (1 to 591 residues) expressed in baculovirus expression system using SGKtide as substrate at 1 uM in presence of ATP by Mobility shift assay
[19] = molecular target: Protein kinase C beta type (Homo sapiens) (UniProt P05771); assay: Inhibition of N-terminal GST-fused human full length PKC-beta1 (1 to 671 residues ) expressed in baculovirus expression system using PKC peptide as substrate at 1 uM in presence of ATP by Mobility shift assay
[20] = molecular target: Rho-associated protein kinase 2 (Homo sapiens) (UniProt O75116); assay: Inhibition of N-terminal GST-fused human ROCK2 catalytic domain (1 to 553 residues) expressed in baculovirus expression system using LIMKtide as substrate at 1 uM in presence of ATP by Mobility shift assay
[21] = molecular target: STE20-like serine/threonine-protein kinase (Homo sapiens) (UniProt Q9H2G2); assay: Inhibition of N-terminal GST-fused full length human SLK (1 to 1152 residues) expressed in baculovirus expression system using Moesin-derived peptide as substrate at 1 uM in presence of ATP by Mobility shift assay
[22] = molecular target: Testis-specific serine/threonine-protein kinase 3 (Homo sapiens) (UniProt Q96PN8); assay: Inhibition of N-terminal GST-fused full length human TSSK3 (2 to 268 residues) expressed in baculovirus expression system using GS peptide as substrate at 1 uM in presence of ATP by Mobility shift assay
Homo sapiens = species on record: Homo sapiens; assay: Competitive inhibition of PRC2-EZH2 (unknown origin) assessed as intensity of SAM signal using SAM as substrate at 800 uM by STD-NMR analysis (reference value: 100%); set-up: scale not given: the % may be the effect or the level left

NUAK family SNF1-like kinase 1 (Homo sapiens), sequence (O60285 whole entry, the tested form may be a part): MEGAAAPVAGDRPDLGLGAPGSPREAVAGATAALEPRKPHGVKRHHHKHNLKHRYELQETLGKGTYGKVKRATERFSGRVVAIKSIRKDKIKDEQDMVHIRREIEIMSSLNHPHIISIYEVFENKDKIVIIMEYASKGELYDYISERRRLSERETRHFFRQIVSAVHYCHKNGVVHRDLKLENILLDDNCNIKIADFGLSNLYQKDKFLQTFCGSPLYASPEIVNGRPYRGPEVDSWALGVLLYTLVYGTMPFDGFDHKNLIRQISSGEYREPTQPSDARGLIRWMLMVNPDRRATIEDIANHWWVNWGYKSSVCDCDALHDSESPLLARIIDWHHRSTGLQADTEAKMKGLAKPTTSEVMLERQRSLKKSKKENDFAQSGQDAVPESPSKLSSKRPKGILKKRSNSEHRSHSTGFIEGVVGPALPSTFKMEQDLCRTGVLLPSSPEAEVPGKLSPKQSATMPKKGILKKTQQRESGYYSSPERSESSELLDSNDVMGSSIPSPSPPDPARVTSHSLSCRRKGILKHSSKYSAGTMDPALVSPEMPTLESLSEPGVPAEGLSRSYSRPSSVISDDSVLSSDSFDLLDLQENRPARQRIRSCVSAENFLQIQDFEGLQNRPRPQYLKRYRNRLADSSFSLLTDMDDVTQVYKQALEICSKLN
Ribosomal protein S6 kinase beta-1 (Homo sapiens), sequence (P23443 whole entry, looked up, the tested form may be a part): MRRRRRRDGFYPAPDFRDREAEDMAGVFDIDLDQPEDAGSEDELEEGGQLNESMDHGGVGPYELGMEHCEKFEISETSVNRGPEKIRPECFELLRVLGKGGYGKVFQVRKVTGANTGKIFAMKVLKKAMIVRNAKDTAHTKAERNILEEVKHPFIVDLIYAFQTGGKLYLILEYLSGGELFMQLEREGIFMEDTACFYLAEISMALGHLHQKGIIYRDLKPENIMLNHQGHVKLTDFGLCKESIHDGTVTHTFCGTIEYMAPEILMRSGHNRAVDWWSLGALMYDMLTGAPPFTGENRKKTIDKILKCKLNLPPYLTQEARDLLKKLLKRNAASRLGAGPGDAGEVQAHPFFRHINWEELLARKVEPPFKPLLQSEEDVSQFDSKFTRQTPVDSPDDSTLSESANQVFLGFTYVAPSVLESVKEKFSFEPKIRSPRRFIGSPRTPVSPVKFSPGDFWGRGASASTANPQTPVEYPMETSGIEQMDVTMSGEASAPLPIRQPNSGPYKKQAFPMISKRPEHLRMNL
ALK tyrosine kinase receptor (Homo sapiens), sequence (Q9UM73 19-1620 limits assumed): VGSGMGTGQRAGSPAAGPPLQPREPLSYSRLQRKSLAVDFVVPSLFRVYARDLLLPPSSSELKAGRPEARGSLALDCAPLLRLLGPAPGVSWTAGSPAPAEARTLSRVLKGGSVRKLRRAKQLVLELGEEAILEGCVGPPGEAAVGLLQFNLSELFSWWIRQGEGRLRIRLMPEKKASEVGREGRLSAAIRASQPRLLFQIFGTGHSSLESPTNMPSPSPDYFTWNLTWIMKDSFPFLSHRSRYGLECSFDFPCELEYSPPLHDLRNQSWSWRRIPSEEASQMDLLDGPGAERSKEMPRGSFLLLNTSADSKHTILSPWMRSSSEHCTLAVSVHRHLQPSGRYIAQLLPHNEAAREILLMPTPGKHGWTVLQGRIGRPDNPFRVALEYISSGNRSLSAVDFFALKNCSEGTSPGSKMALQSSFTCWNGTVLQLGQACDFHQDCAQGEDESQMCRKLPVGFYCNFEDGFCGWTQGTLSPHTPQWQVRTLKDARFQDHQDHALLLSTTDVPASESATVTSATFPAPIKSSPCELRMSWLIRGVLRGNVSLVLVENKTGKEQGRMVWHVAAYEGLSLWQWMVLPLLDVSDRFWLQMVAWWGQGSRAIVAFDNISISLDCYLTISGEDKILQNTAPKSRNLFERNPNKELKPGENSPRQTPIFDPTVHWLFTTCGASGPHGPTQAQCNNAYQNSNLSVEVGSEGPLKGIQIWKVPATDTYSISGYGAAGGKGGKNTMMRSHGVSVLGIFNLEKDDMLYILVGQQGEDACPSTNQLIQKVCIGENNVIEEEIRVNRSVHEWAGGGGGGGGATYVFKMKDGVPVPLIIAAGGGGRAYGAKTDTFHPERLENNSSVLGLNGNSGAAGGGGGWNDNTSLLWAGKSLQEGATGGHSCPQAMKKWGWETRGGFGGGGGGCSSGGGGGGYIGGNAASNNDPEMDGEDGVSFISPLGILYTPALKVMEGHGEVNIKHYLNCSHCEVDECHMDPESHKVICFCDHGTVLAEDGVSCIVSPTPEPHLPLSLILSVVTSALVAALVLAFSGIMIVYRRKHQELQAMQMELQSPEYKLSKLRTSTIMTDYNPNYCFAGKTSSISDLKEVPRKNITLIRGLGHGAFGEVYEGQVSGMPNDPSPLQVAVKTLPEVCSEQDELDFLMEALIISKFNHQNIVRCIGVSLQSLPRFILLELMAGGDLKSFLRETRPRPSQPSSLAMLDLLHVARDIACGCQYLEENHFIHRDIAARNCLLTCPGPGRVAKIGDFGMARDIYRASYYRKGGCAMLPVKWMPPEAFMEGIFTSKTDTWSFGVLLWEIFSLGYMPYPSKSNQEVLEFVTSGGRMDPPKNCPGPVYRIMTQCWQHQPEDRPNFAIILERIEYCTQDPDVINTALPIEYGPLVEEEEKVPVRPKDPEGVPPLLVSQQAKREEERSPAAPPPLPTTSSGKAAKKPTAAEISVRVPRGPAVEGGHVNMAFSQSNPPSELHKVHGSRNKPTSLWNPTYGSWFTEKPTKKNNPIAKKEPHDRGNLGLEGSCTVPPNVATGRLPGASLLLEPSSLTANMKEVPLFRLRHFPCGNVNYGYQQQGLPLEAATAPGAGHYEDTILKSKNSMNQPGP
Protein-tyrosine kinase 6 (Homo sapiens), sequence (Q13882 whole entry, looked up, the tested form may be a part): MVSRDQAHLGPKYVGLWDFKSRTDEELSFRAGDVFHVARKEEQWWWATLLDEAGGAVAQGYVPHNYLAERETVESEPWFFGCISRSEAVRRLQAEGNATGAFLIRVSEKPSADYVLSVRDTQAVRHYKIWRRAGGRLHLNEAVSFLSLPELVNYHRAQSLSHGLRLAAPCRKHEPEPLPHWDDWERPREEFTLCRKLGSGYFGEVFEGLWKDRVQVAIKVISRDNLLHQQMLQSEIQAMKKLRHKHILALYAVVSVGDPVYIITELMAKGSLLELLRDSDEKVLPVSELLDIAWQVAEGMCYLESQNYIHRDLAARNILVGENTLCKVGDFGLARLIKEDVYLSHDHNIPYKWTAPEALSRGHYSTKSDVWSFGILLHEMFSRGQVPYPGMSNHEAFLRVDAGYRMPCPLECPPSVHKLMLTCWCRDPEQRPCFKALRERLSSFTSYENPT
Rho-associated protein kinase 2 (Homo sapiens), sequence (O75116 whole entry, looked up, the tested form may be a part): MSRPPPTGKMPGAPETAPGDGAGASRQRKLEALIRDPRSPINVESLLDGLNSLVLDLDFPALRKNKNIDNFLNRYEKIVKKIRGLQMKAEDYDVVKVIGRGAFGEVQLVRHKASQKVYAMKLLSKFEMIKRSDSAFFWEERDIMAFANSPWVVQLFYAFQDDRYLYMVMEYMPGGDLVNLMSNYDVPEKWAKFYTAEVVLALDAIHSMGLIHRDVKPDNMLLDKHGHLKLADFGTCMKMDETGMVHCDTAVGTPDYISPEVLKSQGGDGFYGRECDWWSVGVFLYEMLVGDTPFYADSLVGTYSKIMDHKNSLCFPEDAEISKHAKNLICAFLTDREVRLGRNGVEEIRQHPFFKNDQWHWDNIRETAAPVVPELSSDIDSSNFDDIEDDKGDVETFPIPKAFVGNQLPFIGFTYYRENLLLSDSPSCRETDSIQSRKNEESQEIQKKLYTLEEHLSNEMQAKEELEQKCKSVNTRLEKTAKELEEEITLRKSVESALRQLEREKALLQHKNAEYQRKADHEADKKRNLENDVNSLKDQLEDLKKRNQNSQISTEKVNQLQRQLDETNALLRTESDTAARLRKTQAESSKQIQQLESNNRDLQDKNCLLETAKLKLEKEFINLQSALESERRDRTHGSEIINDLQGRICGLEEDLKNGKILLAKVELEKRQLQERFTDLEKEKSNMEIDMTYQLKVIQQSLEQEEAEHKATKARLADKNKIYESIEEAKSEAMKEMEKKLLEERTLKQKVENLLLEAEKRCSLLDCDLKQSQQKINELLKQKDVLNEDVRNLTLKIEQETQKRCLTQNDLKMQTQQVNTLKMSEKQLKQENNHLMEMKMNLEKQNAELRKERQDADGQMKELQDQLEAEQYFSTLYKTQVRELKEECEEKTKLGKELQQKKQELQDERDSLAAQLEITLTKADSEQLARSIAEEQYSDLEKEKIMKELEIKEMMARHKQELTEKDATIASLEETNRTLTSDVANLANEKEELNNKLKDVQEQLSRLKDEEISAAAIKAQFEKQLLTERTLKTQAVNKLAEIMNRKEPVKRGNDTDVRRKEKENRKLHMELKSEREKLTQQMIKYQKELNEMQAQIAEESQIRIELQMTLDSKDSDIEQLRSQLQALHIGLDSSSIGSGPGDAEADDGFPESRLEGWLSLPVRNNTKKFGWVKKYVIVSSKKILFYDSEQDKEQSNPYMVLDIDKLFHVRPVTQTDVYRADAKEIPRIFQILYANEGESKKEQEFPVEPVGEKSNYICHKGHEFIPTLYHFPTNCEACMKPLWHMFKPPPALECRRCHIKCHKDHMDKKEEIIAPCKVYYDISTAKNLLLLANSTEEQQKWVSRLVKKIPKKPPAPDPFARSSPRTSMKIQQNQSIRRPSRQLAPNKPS
Serine/threonine-protein kinase Nek7 (Homo sapiens), sequence (Q8TDX7 whole entry, looked up, the tested form may be a part): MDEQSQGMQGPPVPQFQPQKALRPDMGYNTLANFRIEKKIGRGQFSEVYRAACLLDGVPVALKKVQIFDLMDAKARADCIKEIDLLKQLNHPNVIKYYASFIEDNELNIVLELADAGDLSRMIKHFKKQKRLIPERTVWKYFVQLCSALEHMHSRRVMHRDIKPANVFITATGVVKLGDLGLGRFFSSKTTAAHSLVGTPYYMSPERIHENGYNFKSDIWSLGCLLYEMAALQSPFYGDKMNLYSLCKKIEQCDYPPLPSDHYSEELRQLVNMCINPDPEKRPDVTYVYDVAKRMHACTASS

Cc1cc(C)c(CNC(=O)c2cc(Br)c3c(c2C)O[C@@](C)([C@H]2CC[C@H](N(C)C)CC2)O3)c(=O)[nH]1
inhibition [1]: -6.9% | inhibition [2]: -2.8% | inhibition [3]: -3.9% | inhibition [4]: -2.9% | inhibition [5]: -4.4% | inhibition [6]: 6% | inhibition [7]: 3% | inhibition [8]: -1.7% | inhibition [9]: -3.7% | inhibition [10]: -3.3% | inhibition [11]: -7.4% | inhibition [12]: -3% | inhibition [13]: -0.2% | inhibition [14]: -0.6% | inhibition [15]: 2.8% | inhibition [16]: -1.7% | inhibition [17]: 4.3% | inhibition [18]: -1.8% | inhibition [19]: 6.9% | inhibition [20]: 2.2% | inhibition [21]: 1.6% | inhibition [22]: 12.1% | Activity (Homo sapiens): 59%

Cc1cc(C)c(CNC(=O)c2cc(Cl)c3c(c2C)O[C@@](C)([C@H]2CC[C@H](N(C)C)CC2)O3)c(=O)[nH]1 [VALEMETOSTAT]
inhibition [1]: -6.9% | inhibition [2]: -9.1% | inhibition [3]: -3% | inhibition [4]: -4.3% | inhibition [5]: -5.2% | inhibition [6]: 5.6% | inhibition [7]: 2.8% | inhibition [8]: -4% | inhibition [9]: -3.7% | inhibition [10]: 1.7% | inhibition [11]: -5% | inhibition [12]: -0.3% | inhibition [13]: 0.4% | inhibition [14]: 11.5% | inhibition [15]: 1.6% | inhibition [16]: 3% | inhibition [17]: 1.5% | inhibition [18]: 0.1% | inhibition [19]: 1.8% | inhibition [20]: 3.3% | inhibition [21]: 3.3% | inhibition [22]: 7.3% | Activity (Homo sapiens): 62%
